According to ChEMBL document CHEMBL1133839, “A new class of antiarrhythmic-defibrillatory agents” (2001):

Legend:
Format in all cases: functional
Felis catus [1] = assay: Evaluated for its relative defibrillating activity in male cats 10 min after injection at concentration 3 mg/Kg
Felis catus [2] = assay: Evaluated for its relative defibrillating activity in male cats 10 min after injection at concentration 1 mg/Kg
Felis catus [3] = assay: Evaluated for its relative defibrillating activity in male cats 10 min after injection at concentration 2 mg/Kg
Felis catus [4] = assay: Evaluated for its relative defibrillating activity in male cats 10 min after injection at concentration 0.5 mg/Kg
Felis catus [5] = assay: Evaluated for its relative defibrillating activity in male cats 10 min after injection at 0.5 mg/Kg
Felis catus [6] = assay: Evaluated for its relative defibrillating activity in male cats 10 min after injection at 3 mg/Kg
Felis catus [7] = assay: Evaluated for its relative defibrillating activity in male cats 10 min after injection at 1 mg/Kg
Felis catus [8] = assay: Evaluated for its relative defibrillating activity in male cats 10 min after injection at 2 mg/Kg

SMILES	Relative activity (Felis catus [1]) [%]	Relative activity (Felis catus [2]) [%]	Relative activity (Felis catus [3]) [%]	Relative activity (Felis catus [4]) [%]	Relative activity (Felis catus [5]) [%]	Relative activity (Felis catus [6]) [%]	Relative activity (Felis catus [7]) [%]	Relative activity (Felis catus [8]) [%]
CC(C)(C)NCCC(=O)N1c2ccccc2CCc2ccccc21.Cl	100	50	100	–	–	–	–	–
CC(C)NC[C@H](O)CN1c2ccccc2CCc2ccccc21.Cl	–	100	100	75	–	–	–	–
CC(C)CNCCC(=O)N1c2ccccc2CCc2ccccc21.Cl	0	0	0	–	–	–	–	–
CNCCC(=O)N1c2ccccc2NC(=O)c2ccccc21.Cl	0	0	0	–	–	–	–	–
CC(C)NCC(O)CN1c2ccccc2CCc2ccccc21.Cl (configuration not stated)	100	50	100	50	–	–	–	–
CCNCCC(=O)N1c2ccccc2NC(=O)c2ccccc21.Cl	0	–	0	–	–	–	–	–
CC(C)NCCC(=O)N1c2ccccc2NC(=O)c2ccccc21.Cl	0	–	0	–	–	–	–	–
CNCCC(=O)N1c2ccccc2CCc2ccccc21.Cl	–	–	–	–	0	100	25	100
CC(C)NCCC(=O)N1c2ccccc2CCc2ccccc21.Cl	–	75	100	25	–	100	–	–
CC(C)NC[C@@H](O)CN1c2ccccc2CCc2ccccc21.Cl	–	50	100	50	–	–	–	–
Cl.O=C(CCNCc1ccccc1)N1c2ccccc2CCc2ccccc21	0	0	0	–	–	–	–	–
CCC(C)NCCC(=O)N1c2ccccc2CCc2ccccc21.Cl (configuration not stated)	0	0	0	–	–	–	–	–
CCNCCC(=O)N1c2ccccc2CCc2ccccc21.Cl	–	–	–	–	0	100	50	75
CNCCCN1c2ccccc2CCc2ccccc21 [DESIPRAMINE]	100	25	75	–	–	–	–	–
CN(C)CCCN1c2ccccc2CCc2ccccc21 [IMIPRAMINE]	75	0	50	–	–	–	–	–
